The values below are quoted from earlier work in patent EP1783518B1, “Functionalized dyes and use thereof in ophthalmic lens material” (Ophtec B.V., priority 2005, dated 2007).

Molecules are shown by their SMILES. Converted amounts (≈) assume the structure as drawn.

Turning to `Cc1cc(N=Nc2ccc(N=Nc3ccccc3)cc2)ccc1O` [Disperse Yellow 7, 4-[[p-(phenylazo)phenyl]azo]-o-cresol], the “solubility in EGME” value (ethylene glycol monomethyl ether (EGME)) was 80 mg/mL (≈ 253 mM).

As to `O=C(O)c1cc(N=Nc2ccc(N=Nc3ccc(S(=O)(=O)[O-])cc3)cc2)ccc1[O-].[Na+].[Na+]` [Mordant Orange 6], the solubility in water is 40 mg/mL. Turning to `Cc1cc(N=Nc2ccc(N=Nc3ccc(S(=O)(=O)O)cc3)cc2)cc(C(=O)O)c1O.[Na+]` [Mordant Orange 10], the solubility in water is 40 mg/mL.
